Results on two substances are retold here after patent US20220218614A1, “IONIZABLE CATIONIC LIPIDS AND LIPID NANOPARTICLES, AND METHODS OF SYNTHESIS AND USE THEREOF” (Tidal Therapeutics, Inc., priority 2020, published 2022).

One assay concerns human CD3 T cells. The experiment in a line: Transfection of human CD3 T cells (CD8 and CD4 subsets) with Fab/Nb-targeted LNPs. The class given is cell-based. To be noted: targeted Lipid 8 LNP (Lipid 5 in Example 43), GFP mRNA approximately 2.5 μg/mL, approximately 24 hr. Here is the method:
LNPs were prepared using the mixing process described in Example 6, the buffer exchange process described below in Example 21. Using methods similar to Example 12, hSP34 and TRX2 Fab-lipid conjugates and a non-T cell specific anti-HER2 lipid-conjugate (Nellis D F, Ekstrom D L, Kirpotin D B, Zhu J, Andersson R, Broadt T L, Ouellette T F, Perkins S C, Roach J M, Drummond D C, Hong K, Marks J D, Park J W and Giardina S L (2005) Preclinical manufacture of an anti-HER2 scFv-PEG-DSPE, liposome-inserting conjugate. 1. Gram-scale production and purification. Biotechnol Prog 21:205-220) were post-inserted at various densities (SP34 0.25-17 g/mol; TRX2 0.25-9 g/mol; SP34+TRX2 0.25-9 g/mol each conjugate; anti-HER2 17 g/mol) into LNPs containing Lipid 8 and anti-CD20 targeting CART mRNA. Transfections were performed with human CD3 T cells at approximately 2.5 μg/mL mRNA for approximately 24 hr. For FACS analysis T cells were stained with M1 antibody (Sigma, F3040) that bind a N-terminus FLAG-tag variant sequence on the TTR-023 CAR (sequence provided below) in addition to staining for CD69 (Biolegend, 310930) and CD4 (Biolegend, 344648) to differentiate CD8 from CD4 cells.
LNPs were prepared using the mixing process described in Example 6, the buffer exchange process described in Example 21. Using methods similar to Example 12, hSP34, TRX2, and Ibalizumab Fab-lipid conjugates and a non-T cell specific anti-HER2 lipid-conjugate were post-inserted at various densities (specified in FIGS. 20A and 20B into LNPs containing Lipid 8 and Cy5/GFP mRNA. Transfections were performed with human CD3 T cells at approximately 2.5 μg/mL mRNA for approximately 24 hr and stained for CD69 (Biolegend, 310930) and CD4 (Biolegend, 344648) to differentiate CD8 from CD4 cells by FACS analysis.
LNPs were prepared using the mixing process described in Example 6, the buffer exchange process described in Example 21. […] Levels of transfection of CD3 T cells was measured by flow cytometry. […]

A further assay relates to IFNγ. The assay can be described thus: Human IFNγ ELISA of T cell culture supernatants after LNP transfection. The settings on record: T cells approximately 24 hr after targeted LNPs at approximately 2.5 μg/mL mRNA. The class given is cell-based. On the procedure: LNPs were prepared using the mixing process described in Example 6, the buffer exchange process described in Example 21. hSP34 and TRX2 Fab-lipid conjugates generated from methods described in Example 4 and a non-T cell specific anti-HER2 lipid-conjugate (Nellis D F, Ekstrom D L, Kirpotin D B, Zhu J, Andersson R, Broadt T L, Ouellette T F, Perkins S C, Roach J M, Drummond D C, Hong K, Marks J D, Park J W and Giardina S L (2005) Preclinical manufacture of an anti-HER2 scFv-PEG-DSPE, liposome-inserting conjugate. 1. Gram-scale production and purification. Biotechnol Prog 21:205-220) were post-inserted at various densities (SP34 0.6-17 g/mol; TRX2 3-9 g/mol; anti-HER2 17 g/mol) into LNPs containing Lipid 8, Cy5 labeled GFP mRNA and GFP mRNA (1:9 Cy5:GFP mass ratio) by adding conjugate and LNPs together and heating the solution without mixing in a thermal cycler at 60 C for 60 min and cooled to 4° C. for 3-5 min. […] After transfection, LNP binding efficiency (Cy5) and transfection efficiency (GFP) was evaluated by flow cytometry. Supernatants were measured for human IFNγ concentration using a commercially available ELISA kit under manufacturers recommended conditions (R&D Systems Duoset).
IFN-γ was assayed using an R&D Duoset […] ELISA kit, PN DY285B. […] Optical density at 450 nm was read on a Spectramax M5 plate reader. […]
Background: ELISA stands for enzyme-linked immunosorbent assay.

Entries after “also recorded” stand apart in the source; their conditions may differ.

In the case of “SP34 NoDS Fab: anti-CD3 Fab without interchain disulfide, SEQ ID NO: 38 and 39”, the “% GFP transfection and GFP expression (MFI) of CD8 and CD4 T cells, in words” value in the assay with human CD3 T cells is “higher % transfection (FIG. 65E) and higher GFP expression levels (FIG. 65F) than the SP34 DS Fab; also recorded: higher % transfection (FIG. 67A) and higher GFP expression levels”. As to “TRX4: anti-CD3 TRX4 bDS Fab, SEQ ID NO: 50 and 51”, the “% GFP transfection and GFP expression (MFI) of CD8 and CD4 T cells, in words” value in the assay on human CD3 T cells is “lower levels of GFP expression”. In addition, the “IFNγ secretion into supernatant, in words” value in the assay with IFNγ is listed as “higher levels of IFNγ secretion than SP34”.
